Results reported in the NIST ThermoML archive (doi:10.1016/j.jct.2004.06.009).
± gives the expanded uncertainty stated by the source.

Assay: Molar enthalpy of transition or fusion

SMILES | Molar enthalpy of transition or fusion (Crystal 1) [kcal/mol] | Molar enthalpy of transition or fusion (Crystal 2) [kcal/mol] | Molar enthalpy of transition or fusion (Crystal) [kcal/mol]
CC12CC3CC(C1)CC(C)(C3)C2 [1,3-dimethyladamantane] | 0.368 ± 0.0098 | 2.225 ± 0.00717 | –
CCC12CC3CC(CC(C3)C1)C2 [1-ethyladamantane] | – | – | 2.696 ± 0.012
